Source: US20130344026A1, “Dimeric Smac Mimetics” (priority 2009, published 2013)
Where two headings read alike, the source gives them in different places.

System: PANC-1 cells
Experiment: cell viability assay in PANC-1 cells (compound alone, + 100 ng/ml TNFa, + 300 ng/ml TRAIL)
Type: cell-based
[1] = Homo sapiens, PANC-1, compound alone, Tables 6-10, read-out: IC50 (μM) in cell viability assay in PANC-1 cells: Compound alone
[2] = with 100 ng/ml TNFa, Tables 6-10, read-out: IC50 (μM) in cell viability assay in PANC-1 cells: Compound + 100 ng/ml TNFa
[3] = with 300 ng/ml TRAIL, Tables 6-10, read-out: IC50 (μM) in cell viability assay in PANC-1 cells: Compound + 300 ng/ml TRAIL
[4] = Homo sapiens, PANC-1 cells, compound alone, read-out: IC50 (uM) in cell viability assay in PANC-1 cells, Cmpnd alone
[5] = PANC-1 cells, + 100 ng/ml TNFa, read-out: IC50 (uM) in cell viability assay in PANC-1 cells, Cmpnd + 100 ng/ml TNFa
[6] = PANC-1 cells, + 300 ng/ml TRAIL, read-out: IC50 (uM) in cell viability assay in PANC-1 cells, Cmpnd + 300 ng/ml TRAIL
[7] = Homo sapiens, PANC-1, compound alone, Tables 15-18, read-out: IC50 (uM) in cell viability assay in PANC-1 cells: Cmpnd alone
[8] = with 100 ng/ml TNFa, Tables 15-18, read-out: IC50 (uM) in cell viability assay in PANC-1 cells: Cmpnd + 100 ng/ml TNFa
[9] = with 300 ng/ml TRAIL, Tables 15-18, read-out: IC50 (uM) in cell viability assay in PANC-1 cells: Cmpnd + 300 ng/ml TRAIL

IC50 [1] [µM]	IC50 [2] [µM]	IC50 [3] [µM]	SMILES	further results
> 1	0.994	> 1	CN[C@@H](C)C(=O)N[C@H](C(=O)N[C@@H](CCNC(=O)CC[C@H](NC(=O)[C@@H](NC(=O)[C@H](C)NC)C(C)(C)C)C(=O)N[C@@H]1CCCc2ccccc21)C(=O)N[C@H](C)C(C)C)C(C)C [Compound 166]	
> 1	0.683	0.616	CN[C@@H](C)C(=O)NC(C(=O)N[C@@H](CCC(=O)NCCc1cn([C@H]2C[C@@H](C(=O)N[C@@H]3CCCc4ccccc43)N(C(=O)[C@@H](NC(=O)[C@H](C)NC)C(C)(C)C)C2)nn1)C(=O)N[C@H](C)C(C)C)C(C)C (stereo partly drawn) [Compound 203]	
> 1	> 1	> 1	CN[C@@H](C)C(=O)N[C@H](C(=O)N1C[C@@H](NC(=O)c2cccc(C(=O)N[C@H]3C[C@@H](C(=O)N[C@H](COC)[C@@H](C)OC)N(C(=O)[C@@H](NC(=O)[C@H](C)NC)C(C)(C)C)C3)c2)C[C@H]1C(=O)N[C@H](COC)[C@@H](C)OC)C(C)(C)C [Compound 69]	
> 1	0.05	0.048	CN[C@@H](C)C(=O)NC(C(=O)N1C[C@@H](NC(=O)c2cccc(C(=O)N[C@H]3CC(C(=O)N[C@H](CO)Cc4ccccc4)N(C(=O)[C@@H](NC(=O)[C@H](C)NC)C(C)(C)C)C3)c2)CC1C(=O)N[C@H](CO)Cc1ccccc1)C(C)(C)C (stereo partly drawn) [Compound 43]	
			CN[C@@H](C)C(=O)N[C@H](C(=O)N1C[C@@H](NC(=O)c2[nH]c(C(=O)N[C@H]3C[C@@H](C(=O)N[C@H](C)c4ccccc4)N(C(=O)[C@@H](NC(=O)[C@H](C)NC)C(C)(C)C)C3)c3c2OCCO3)C[C@H]1C(=O)N[C@H](C)c1ccccc1)C(C)(C)C [Compound P3-95]	IC50 [4]: > 1 µM; IC50 [5]: 0.006 µM; IC50 [6]: 0.006 µM
			CN[C@@H](C)C(=O)N[C@H](C(=O)N1C[C@@H](NC(=O)c2cc(C(=O)N[C@H]3C[C@@H](C(=O)N[C@H](C)c4ccccc4)N(C(=O)[C@@H](NC(=O)[C@H](C)NC)[C@@H](C)OC)C3)[nH]n2)C[C@H]1C(=O)N[C@H](C)c1ccccc1)[C@@H](C)OC [Compound P3-110]	IC50 [4]: > 1 µM; IC50 [5]: 0.056 µM; IC50 [6]: 0.073 µM
			CN[C@@H](C)C(=O)N[C@@H](CCCCNC(=O)CCCCCCC(=O)NCCCC[C@H](NC(=O)[C@H](C)NC)C(=O)N1CCC[C@H]1C(=O)N[C@@H]1CCCc2ccccc21)C(=O)N1CCC[C@H]1C(=O)N[C@@H]1CCCc2ccccc21 [Compound P2-34]	IC50 [7]: > 1 µM; IC50 [8]: 0.04 µM; IC50 [9]: 0.064 µM
			CN[C@@H](C)C(=O)N[C@H](C(=O)N1C[C@@H](NC(=O)c2ccc(C#Cc3ccc(C(=O)N[C@H]4C[C@@H](C(=O)N[C@@H]5CCCc6ccccc65)N(C(=O)[C@@H](NC(=O)[C@H](C)NC)C(C)(C)C)C4)cc3)cc2)C[C@H]1C(=O)N[C@@H]1CCCc2ccccc21)C(C)(C)C [Compound P3-100]	IC50 [4]: > 1 µM; IC50 [5]: 0.054 µM; IC50 [6]: 0.055 µM
> 1	> 1	> 1	CN[C@@H](C)C(=O)N[C@H](C(=O)N1C[C@@H](NC(=O)CC[C@@H](NC(=O)[C@H](NC(=O)[C@@H](C)NC)C(C)C)C(=O)N[C@@H](C)C(C)C)C[C@H]1C(=O)N[C@H](C)c1ccccc1)C(C)C [Compound 168]	
> 1	0.06	0.1	CN[C@@H](C)C(=O)N[C@H](C(=O)N1C[C@@H](NC(=O)CC[C@@H](NC(=O)[C@H](NC(=O)[C@@H](C)NC)C(C)(C)C)C(=O)N[C@H]2CCCc3ccccc32)C[C@H]1C(=O)N[C@H](C)c1ccccc1)C(C)C [Compound 167]	
> 1	0.008	0.014	CN[C@@H](C)C(=O)N[C@H](C(=O)N1C[C@@H](NC(=O)c2cccc(C(=O)N[C@H]3C[C@@H](C(=O)N[C@@H]4CCCc5cc(OC)ccc54)N(C(=O)[C@@H](NC(=O)[C@H](C)NC)C(C)(C)C)C3)c2)C[C@H]1C(=O)N[C@@H]1CCCc2cc(OC)ccc21)C(C)(C)C [Compound 45]	
> 1	0.0199	0.0388	CN[C@@H](C)C(=O)N[C@H](C(=O)N[C@@H](CCNC(=O)c1cccc(C(=O)N[C@H]2C[C@@H](C(=O)N[C@@H]3CCCc4ccccc43)N(C(=O)[C@@H](NC(=O)[C@H](C)NC)C(C)(C)C)C2)c1)C(=O)N[C@H](C)C(C)C)C(C)(C)C [Compound 176]	
			CN[C@@H](C)C(=O)N[C@H](C(=O)N1C[C@@H](Oc2cccc(C#CC#Cc3cccc(O[C@H]4C[C@@H](C(=O)N[C@@H]5CCCc6ccccc65)N(C(=O)[C@@H](NC(=O)[C@H](C)NC)C(C)(C)C)C4)c3)c2)C[C@H]1C(=O)N[C@@H]1CCCc2ccccc21)C(C)(C)C [Compound P3-103]	IC50 [4]: > 1 µM; IC50 [5]: 0.0316 µM; IC50 [6]: 0.037 µM
			CN[C@@H](C)C(=O)N[C@H](C(=O)N1C[C@@H](NC(=O)c2nc[nH]c2C(=O)N[C@H]2C[C@@H](C(=O)N[C@H](C)c3ccccc3)N(C(=O)[C@@H](NC(=O)[C@H](C)NC)C(C)(C)C)C2)C[C@H]1C(=O)N[C@H](C)c1ccccc1)C(C)(C)C [Compound P3-92]	IC50 [4]: > 1 µM; IC50 [5]: 0.099 µM; IC50 [6]: 0.072 µM
> 1	0.109	0.069	CN[C@@H](C)C(=O)NC(C(=O)N[C@@H](CCNC(=O)CCc1cn([C@H]2C[C@@H](C(=O)N[C@@H]3CCCc4ccccc43)N(C(=O)[C@@H](NC(=O)[C@H](C)NC)C(C)(C)C)C2)nn1)C(=O)N[C@H](C)C(C)C)C(C)(C)C (stereo partly drawn) [Compound 198]	
			CN[C@@H](C)C(=O)N[C@H](C(=O)N1CCC[C@H]1C(=O)N[C@H](COC(=O)c1cccc(C(=O)OC[C@@H](NC(=O)[C@@H]2CCCN2C(=O)[C@@H](NC(=O)[C@H](C)NC)C(C)(C)C)c2ccccc2)c1)c1ccccc1)C(C)(C)C [Compound P4-23]	IC50 [7]: > 1 µM; IC50 [8]: 0.014 µM; IC50 [9]: 0.006 µM
> 1	> 1	> 1	CN[C@@H](C)C(=O)N[C@H](C(=O)N1CCC[C@H]1Cn1ccnc1Cc1ccccc1)[C@@H](C)OCC#CC#CCO[C@H](C)[C@H](NC(=O)[C@H](C)NC)C(=O)N1CCC[C@H]1Cn1ccnc1Cc1ccccc1 [Compound 74]	
> 1	0.452	0.434	CN[C@@H](C)C(=O)NC(C(=O)N1C[C@@H](NC(=O)c2cccc(C(=O)N[C@H]3CC(C(=O)N[C@H](C)c4cccc5ccccc45)N(C(=O)[C@@H](NC(=O)[C@H](C)NC)C(C)(C)C)C3)c2)CC1C(=O)NC(C)c1cccc2ccccc12)C(C)(C)C (stereo partly drawn) [Compound 41]	
			C#CC[C@H](NC(=O)[C@H](C)NC)C(=O)N1C[C@@H](NC(=O)c2cccc(C(=O)N[C@H]3C[C@@H](C(=O)N[C@@H]4CCCc5ccccc54)N(C(=O)[C@@H](NC(=O)[C@H](C)NC)C(C)(C)C)C3)c2)C[C@H]1C(=O)N[C@@H]1CCCc2ccccc21 [Compound H-5]	IC50 [7]: > 1 µM; IC50 [8]: 0.008 µM; IC50 [9]: 0.009 µM

SMILES	IC50 [1] [µM]	IC50 [2] [µM]	IC50 [3] [µM]	further results
CN[C@@H](C)C(=O)N[C@H](C(=O)N1C[C@@H](NC(=O)c2cccc(C(=O)N[C@H]3C[C@@H](C(=O)N[C@@H]4CCCc5cc(O)ccc54)N(C(=O)[C@@H](NC(=O)[C@H](C)NC)C(C)(C)C)C3)c2)C[C@H]1C(=O)N[C@@H]1CCCc2cc(O)ccc21)C(C)(C)C (single isomer, unassigned) [Compound 61]	> 1	0.324	0.439	
CN[C@@H](C)C(=O)N[C@H](C(=O)N1C[C@@H](NC(=O)c2ccc(C(=O)N3CCN(C(=O)[C@H](C)NC)CC3)cc2)C[C@H]1C(=O)N[C@@H]1CCCc2ccccc21)C(C)(C)C [Compound 188]	> 1	0.56	0.55	
CN[C@@H](C)C(=O)N[C@H](C(=O)N1C[C@@H](NC(=O)c2cc(C(=O)NCCN)cc(C(=O)N[C@H]3C[C@@H](C(=O)N[C@@H]4CCCc5ccccc54)N(C(=O)[C@@H](NC(=O)[C@H](C)NC)C(C)(C)C)C3)c2)C[C@H]1C(=O)N[C@@H]1CCCc2ccccc21)C(C)(C)C [Compound 126]	> 1	0.023	0.028	
CN[C@@H](C)C(=O)N[C@@H](CCCCCC[C@H](NC(=O)[C@H](C)NC)C(=O)N1CCC[C@H]1CNC(=O)c1ccccn1)C(=O)N1CCC[C@H]1CNC(=O)c1ccccn1 [Compound 17]	> 1	> 1	> 1	
CC[C@@H](NC(=O)[C@@H]1C[C@H](NC(=O)c2cccc(C(=O)N[C@H]3C[C@@H](C(=O)N[C@H](CC)c4ccccc4)N(C(=O)[C@@H](NC(=O)[C@H](C)NC)C(C)(C)C)C3)c2)CN1C(=O)[C@@H](NC(=O)[C@H](C)NC)C(C)(C)C)c1ccccc1 [Compound 1]	> 1	0.0023	0.0019	
CN[C@@H](C)C(=O)N[C@@H](CCCCCC[C@H](NC(=O)[C@H](C)NC)C(=O)N1CCC[C@H]1CNC(=O)c1ccccc1)C(=O)N1CCC[C@H]1CNC(=O)c1ccccc1 [Compound 16]	> 1	> 1	> 1	
CN[C@@H](C)C(=O)N[C@H](C(=O)N1C[C@@H](NC(=O)c2cccc(C(=O)N[C@H]3C[C@@H](C(=O)N[C@H](C)Cc4ccccc4)N(C(=O)[C@@H](NC(=O)[C@H](C)NC)C(C)(C)C)C3)c2)C[C@H]1C(=O)NC(C)Cc1ccccc1)C(C)(C)C (stereo partly drawn) [Compound 10]	> 1	0.065	0.085	
